Measurements taken from patent publication US20220296518A1, “LIPID-BASED NANOPARTICLE DELIVERY SYSTEM FOR HYDROPHILIC CHARGED COMPOUND” (National Taiwan University, priority 2021, published 2022).
In brackets after ≈: the same amount, converted by molar mass.

Columns and labels:
[1] = In vitro drug release by dialysis at pH 7.4 (PBS) and pH 5.4 (citrate buffer), 37° C.; assay type: physicochemical
Description: The “normalized release” is defined as release ratio in pH 5.4 environment divided by release ratio in pH 7.4 environment wherein the release ratio is defined as the percentage of API released from LNP. A high normalized release is a result of high release ratio in pH 5.4 environment as compared to the release ratio in pH 7.4 environment. Since tumor sites present acidic environment, a high normalized release is a metric indicating tumor targeting capability of an LNP. During experiments, PBS buffer was used to simulate a physiological environment at pH of 7.4, while citrate buffer was used to simulate a tumor microenvironment at pH of 5.4, wherein the citrate buffer contains sodium citrate dehydrate and citric acid and its pH can be adjusted using NaOH and HCl. The in vitro API release was evaluated in these two different solutions using the following steps: 1 mg/mL LNP-dox solution in PBS buffer was prepared by diluting LNP-dox using PBS buffer. The solution was placed into a 1 mL/5 cm dialysis tube (Float-A-lyzer), in which the pore size is 100 kDa. The tube was placed into a beaker containing 150 mL dialysis buffer. The beaker was then placed into a 37° C. water bath. Samples of 1 mL solution were taken from the beaker at 0, 0.5, 1, 2, 4, 8, 26, and 31 hour(s). The API content in the samples was analyzed using UV-Vis spectrophotometer such as […]. […]

colon-26 carcinoma tumor = experiment: In vivo therapeutic efficacy in colon-26 carcinoma tumor-bearing mice; parameters: species or system BALB/c mice; conditions: end of the experiment; 5 mg/kg of dox via tail vein, once per week
Protocol: C26 […] cancer cell line was implanted into the backs of BALB/c mice to create colon-26 carcinoma tumor-bearing mice. When the tumor grew to 100 mm^3, LNP 1 of the present invention containing dox was injected via mice's vein located in the tail at a dosage of 5 mg/kg of dox, once per week. At predetermined time periods 1, 2, 5, 7, 9, 12, 14, 19, 21, 22 days, tumor volume was determined by Vernier caliper. The experiment continued until either mouse death or the tumor size exceeding 2,500 mm^3.

Staphylococcus aureus = experiment: In vitro antibacterial susceptibility, Staphylococcus aureus; assay type: cell-based; conditions: 10^5 CFU, about 24 hour, about 37° C.
Protocol: FIG. 8 illustrates in vitro Staphylococcus aureus antibacterial susceptibility to LNP 1 of the present invention encapsulating doxycycline as compared to free form doxycycline both at MIC 0.4 mcg/ml.
(§1) Free form doxycycline and LNP 1 of the present invention containing doxy were separately applied to Staphylococcus aureus bacteria as well as methicillin-resistant Staphylococcus aureus at 10^5 CFU, incubation with LNP for about 24 hour at about 37° C.

[2] = system: methicillin-resistant Staphylococcus aureus; experiment: In vitro antibacterial susceptibility, methicillin-resistant Staphylococcus aureus; assay type: cell-based; conditions: 10^5 CFU, about 24 hour, about 37° C.
Protocol: FIG. 9 illustrates in vitro methicillin-resistant Staphylococcus aureus antibacterial susceptibility to LNP 1 of the present invention encapsulating doxycycline as compared to free form doxycycline both at MIC 0.4 mcg/ml.
as §1

SMILES	normalized release (release ratio at pH 5.4 / release ratio at pH 7.4) ([1]; 37° C., dialysis, up to 31 hours)	release rate (in words) ([1]; pH 7.4 and pH 5.4, 37° C., FIG. 6)	mice that died or had tumor size of over 2500 mm^3 (colon-26 carcinoma tumor) [%]	MIC (Staphylococcus aureus) [µg/mL]	MIC [2] [µg/mL]
COc1cccc2c1C(=O)c1c(O)c3c(c(O)c1C2=O)C[C@@](O)(C(=O)CO)C[C@@H]3O[C@H]1C[C@H](N)[C@H](O)[C@H](C)O1 [free form dox, doxorubicin]	about 1	released the fastest of the three	40		
C[C@H]1c2cccc(O)c2C(=O)C2=C(O)[C@]3(O)C(=O)C(C(N)=O)=C(O)[C@@H](N(C)C)[C@@H]3[C@@H](O)[C@@H]21 [free form doxycycline, doxycycline]				0.4 (≈ 0.9 µM)	0.4 (≈ 0.9 µM)
